From patent publication US10858360B2, “Tricyclic gyrase inhibitors” (priority 2011, dated 2020)
Converted amounts (≈) assume the structure as drawn.

How the values were obtained:
S. aureus ATCC 13709 = assay: MIC, S. aureus ATCC 13709 (Alamar Blue broth microdilution); format: cell-based; details: Alamar Blue read after overnight incubation at 35° C.; for MIC Sa: S. aureus; for MIC: Staphylococcus aureus, ATCC13709, S. aureus
E. coli ATCC 25922 = assay: MIC, E. coli ATCC 25922; format: cell-based; details: Alamar Blue read after overnight incubation at 35° C.; for MIC Ec: E. coli; for MIC: Escherichia coli, ATCC25922, E. coli

Row | Structure (SMILES) | MIC Sa (S. aureus ATCC 13709) [µg/mL] | MIC Ec (E. coli ATCC 25922) [µg/mL] | MIC (S. aureus ATCC 13709) [µg/mL] | MIC (E. coli ATCC 25922) [µg/mL]
1 | CNc1cc(F)cc2c1[nH]c1nc(Oc3cnc(C)nc3)nc(N3CCC4(CCC4N)CC3)c12 (stereo not shown) [4.139] | ≤0.5 | ≤0.5 | – | –
2 | COc1cccc2c1[nH]c1nc(Oc3cncnc3)nc(N3CCC(N)C3)c12 (stereo not shown) [2.10] | 2 (≈ 5.3 µM) | 32 (≈ 84.8 µM) | – | –
3 | CNc1cc(F)c(F)c2c1[nH]c1nc(Oc3cnc(C)nc3)nc(N3CC4CC(N)C4C3)c12 (stereo not shown) [5.03] | ≤0.5 | ≤0.5 | – | –
4 | CNc1cccc2c1[nH]c1nc(Oc3cncnc3)nc(N3CCC(CN)C3)c12 (stereo not shown) [3.58] | – | – | 32 (≈ 82 µM) | > 64
5 | CNc1cccc2c1[nH]c1nc(Oc3cncnc3)nc(N3CC4(CCNC4)C3)c12 [3.67] | – | – | 16 (≈ 39.8 µM) | 64 (≈ 159 µM)
6 | CNc1cc(F)cc2c1[nH]c1nc(Oc3ccc(C4CC4)nc3)nc(N3CC(N)C4(CC4)C3)c12 (stereo not shown) [4.347] | ≤0.5 | 1 (≈ 2.18 µM) | – | –
7 | CNc1ccc(C)c2c1[nH]c1nc(Sc3cnc4cccnc4c3)nc(N3CC4C(N)C4C3)c12 (stereo not shown) [1.58] | – | – | ≤ 0.5 | 8 (≈ 17.1 µM)
8 | CNc1cc(F)cc2c1[nH]c1nc(Oc3cnc(C4CC4)nc3)nc(N3CC4CCC(CN)C4C3)c12 (stereo not shown) [4.253] | – | – | ≤ 0.5 | ≤ 0.5
9 | CNc1cc(F)cc2c1[nH]c1nc(Oc3cnc4cccnc4c3)nc(N3CC4CC[C@@H](N)[C@H]4C3)c12 (stereo partly shown) [4.047] | – | – | ≤ 0.5 | ≤ 0.5
10 | CNc1cc(F)cc2c1[nH]c1nc(Oc3cnc(C)nc3)nc(N3CCC4(CC3)NC(=O)NC4=O)c12 [4.107] | >16 | >16 | – | –
11 | CNc1cccc2c1[nH]c1nc(Sc3cnc4cccnc4c3)nc(N3CCC(CN)C3)c12 (stereo not shown) [1.48] | – | – | ≤ 0.5 | 2 (≈ 4.38 µM)
12 | CNc1cc(F)cc2c1[nH]c1nc(Oc3cnc4c(c3)C(=O)N(C)C4)nc(N3CC4C[C@@H](N)C4C3)c12 (stereo partly shown) [4.359] | – | – | ≤ 0.5 | ≤ 0.5
13 | CNc1cc(F)cc2c1[nH]c1nc(Oc3ccc4c(c3)ncn4C)nc(N3CC4C[C@@H](N)C4C3)c12 (stereo partly shown) [4.358] | – | – | ≤ 0.5 | 4 (≈ 8.47 µM)
14 | CNc1cc(F)cc2c1[nH]c1nc(Oc3cnc(N)nc3)nc(N3CC4CNC(C4)C3)c12 (stereo not shown) [4.175] | – | – | ≤ 0.5 | 8 (≈ 18.4 µM)
15 | CNc1cc(F)cc2c1[nH]c1nc(Oc3cnc(N)nc3)nc(N3CCCC(N)C3)c12 (stereo not shown) [4.180] | 1 (≈ 2.36 µM) | 8 (≈ 18.9 µM) | – | –
16 | N[C@@H]1CCN(c2nc(Sc3cnc4ccc[n+]([O-])c4c3)nc3[nH]c4c(Cl)cccc4c23)C1 [1.4] | – | – | 32 (≈ 69 µM) | 64 (≈ 138 µM)
17 | CNc1cc(F)cc2c1[nH]c1nc(Oc3ccc4c(c3)C(=O)NCC4)nc(N3CC4C[C@@H](N)C4C3)c12 (stereo partly shown) [4.302] | – | – | ≤ 0.5 | 2 (≈ 4.1 µM)
18 | CNc1cc(F)cc2c1[nH]c1nc(Oc3cncc(-c4nnnn4C)c3)nc(N3CC4C(N)C4C3)c12 (stereo not shown) [4.168] | – | – | ≤ 0.5 | 2 (≈ 4.1 µM)
19 | CNc1cc(F)cc2c1[nH]c1nc(Oc3cc(O)cc4oc(=O)cc(C)c34)nc(N3CC4CC(N)C4C3)c12 (stereo not shown) [4.383] | 4 (≈ 7.74 µM) | >16 | – | –
20 | CNc1cccc2c1[nH]c1nc(Sc3cc4ncccc4[n+]([O-])c3)nc(N3C[C@@H]4[C@@H](N)[C@@H]4C3)c12 [1.31] | – | – | ≤ 0.5 | ≤ 0.5
21 | COc1cccc2c1[nH]c1nc(Sc3cnc4ccc[n+]([O-])c4c3)nc(N3CC(N)C3)c12 [1.77] | – | – | 2 (≈ 4.49 µM) | > 64
22 | CNc1cc(F)cc2c1[nH]c1nc(Oc3cnc(C)nc3)nc(N3CC(NC(=O)C(C)NC(=O)C(C)N)C4(CC4)C3)c12 (stereo not shown) [4.145] | 1 (≈ 1.73 µM) | 8 (≈ 13.9 µM) | – | –
23 | CNc1cc(F)cc2c1[nH]c1nc(Oc3ccnnc3)nc(N3CC(N)C4(CC4)C3)c12 (stereo not shown) [4.230] | 32 (≈ 76.1 µM) | >16 | – | –
24 | CNc1cc(F)cc2c1[nH]c1nc(Oc3cnc4c(c3)C(=O)N(C)C4C)nc(N3CC4CC(N)C4C3)c12 (stereo not shown) [4.397] | ≤0.5 | ≤0.5 | – | –

Row | Structure (SMILES) | MIC Sa (S. aureus ATCC 13709) [µg/mL] | MIC Ec (E. coli ATCC 25922) [µg/mL] | MIC (S. aureus ATCC 13709) [µg/mL] | MIC (E. coli ATCC 25922) [µg/mL]
25 | CNc1cc(F)cc2c1[nH]c1nc(Oc3cnc(C4CC4)nc3)nc(N3CC4CCC3C4N)c12 (stereo not shown) [4.256] | – | – | ≤ 0.5 | ≤ 0.5
26 | CNc1cccc2c1[nH]c1nc(Oc3cncc(C#N)c3)nc(N3CC[C@@H](N)C3)c12 [3.3] | – | – | 0.5 (≈ 1.25 µM) | 1 (≈ 2.5 µM)
27 | CNc1cccc2c1[nH]c1nc(Oc3cncc(C#N)c3)nc(N3CC4C(N)C4C3)c12 (stereo not shown) [3.27] | – | – | 1 (≈ 2.42 µM) | 4 (≈ 9.7 µM)
28 | CNc1cccc2c1[nH]c1nc(Sc3cnc4cccnc4c3)nc(N3CCC4(CCNCC4)C3)c12 [1.56] | – | – | 4 (≈ 8.05 µM) | 32 (≈ 64.4 µM)
29 | CNc1cccc2c1[nH]c1nc(Oc3cncnc3)nc(N3CCC4(CC4N)C3)c12 (stereo not shown) [3.41] | – | – | ≤ 0.5 | ≤ 0.5
30 | CNc1cc(F)cc2c1[nH]c1nc(Oc3cncnc3)nc(N3CCC(C4(N)CC4)C3)c12 (stereo not shown) [4.017] | – | – | ≤ 0.5 | ≤ 0.5
31 | CNc1cc(F)cc2c1[nH]c1nc(Oc3cnc(C)nc3)nc(N3CC4C(N)CC(C)(C)C4C3)c12 (stereo not shown) [4.097] | ≤0.5 | 2 (≈ 4.2 µM) | – | –
32 | CNc1cccc2c1[nH]c1nc(Oc3cncc(OC)c3)nc(N3CC4C(N)C4C3)c12 (stereo not shown) [3.35] | – | – | ≤ 0.5 | 1 (≈ 2.4 µM)
33 | CNc1cc(F)c(F)c2c1[nH]c1nc(Oc3cnc(CO)nc3)nc(N3C[C@H]4C[C@@H]3C[C@H]4N)c12 [5.14] | – | – | ≤ 0.5 | ≤ 0.5
34 | CNc1cc(F)cc2c1[nH]c1nc(Oc3cnc(C)nc3)nc(-c3cccnc3N)c12 [4.448] | – | – | ≤ 0.5 | 1 (≈ 2.4 µM)
35 | CCc1cc(F)cc2c1[nH]c1nc(Oc3cncnc3)nc(N3CC4CC(N)C4C3)c12 (stereo not shown) [2.5] | ≤0.5 | 2 (≈ 4.77 µM) | – | –
36 | CNc1cc(F)cc2c1[nH]c1nc(Oc3cncc(-c4nn[nH]n4)c3)nc(N3CC4C(N)C4C3)c12 (stereo not shown) [4.224] | – | – | 1 (≈ 2.11 µM) | > 16
37 | NC1CN(c2nc(Sc3cnc4nccnc4c3)nc3[nH]c4ccccc4c23)C1 [1.5] | – | – | > 64 | > 64
38 | CNc1cccc2c1[nH]c1nc(Oc3cncnc3)nc(N3CCN(CCN)CC3)c12 [3.56] | – | – | > 64 | > 64
39 | CNc1cc(F)cc2c1[nH]c1nc(Oc3cncc(Br)c3)nc(N3CC4CC3CC4N)c12 (stereo not shown) [4.284] | ≤0.5 | ≤0.5 | – | –
40 | CNc1cc(F)cc2c1[nH]c1nc(Oc3cnc(C)nc3)nc(N3CC(NCCN)C4(CC4)C3)c12 (stereo not shown) [4.090] | ≤0.5 | 4 (≈ 8.38 µM) | – | –
41 | CNc1cc(F)cc2c1[nH]c1nc(Oc3cnc(C)nc3)nc(-c3cncnc3)c12 [4.449] | – | – | ≤ 0.5 | > 16
42 | CNc1cc(F)cc2c1[nH]c1nc(Oc3ccc4oc(C)nc4c3)nc(N3C[C@H]4CC[C@@H](N)[C@H]4C3)c12 [4.336] | – | – | ≤ 0.5 | 1 (≈ 2.05 µM)
43 | CNc1cc(F)cc2c1[nH]c1nc(Oc3cnc(C4CC4)nc3)nc(N3CC(N)C4(CC4)C3)c12 (stereo not shown) [4.242] | ≤0.5 | ≤0.5 | – | –
44 | CNc1cc(F)cc2c1[nH]c1nc(Oc3cnc(C)nc3)nc(N3CC4CCC(N)CC4C3)c12 (stereo not shown) [4.092] | ≤0.5 | 2 (≈ 4.32 µM) | – | –
45 | Nc1cccc2c1[nH]c1nc(Oc3cnc4cccnc4c3)nc(N3CC4C(N)C4C3)c12 (stereo not shown) [2.8] | 16 (≈ 37.7 µM) | >64 | – | –
46 | CNc1cc(F)cc2c1[nH]c1nc(Oc3cnc(C(C)(C)C)nc3)nc(N3C[C@H](N)C4(CC4)C3)c12 [4.315] | – | – | ≤ 0.5 | ≤ 0.5
47 | CNc1cccc2c1[nH]c1nc(Oc3cnc(N4CCOCC4)nc3)nc(N3CC4C(N)C4C3)c12 (stereo not shown) [3.26] | – | – | > 16 | > 16
